We go through one substance from US7964558B2, “Therapeutic applications for C-peptide” (La Jolla, priority 2003, dated 2011).

In one data set the test system is Na+K+ATPase. Description: Na+K+ATPase activity in the sciatic nerve of diabetic BB/Wor rats. Type of data set: in vivo, rat. The settings on record: once daily dose 75 nmol/kg, 8 weeks, sciatic nerve (FIG. 4). How it is done: (§1) Prediabetic male BB/Wor rats were used. Ten rats were used in each group, where the animals were closely age-matched. They were maintained in metabolic cages with free access to water and rat chow. Bodyweight, urine volume and glucosuria were monitored daily to ascertain onset of diabetes. Immediately after the onset of diabetes, administration of C-peptides was commenced in either a single dose/24 hours, three doses/24 hours or as a continuous infusion by osmopump.
(§2) The single dose given was 75 nmol/kg and the three doses given were each 25 nmol/kg. The continuous infusion gave a dose of 75 nmol/kg over a 24 hour period.
(§3) Synthetic rat C-peptide II with a purity of more than 98% by HPLC was used (Genosys, Cambridge, UK) dissolved in saline (12 mg/ml). Control rats were given a dose of saline instead of C-peptide. […]
For Na^+/K^+-ATPase activity, nerve samples were homogenized in 2 ml of 0.2 mol/l sucrose and 0.02 mol/l TRIS-HCl at pH 7.5. […] Na^+/K^+-ATPase activity was defined as the difference before and after ouabain and was expressed as μmol ADP formed per gram of wet weight per hour.
(§4) Statistical analysis. The results are presented as means±SE and the significance of differences was calculated by analysis of variance (ANOVA). Group differences were assessed by post hoc analysis using the Student-Newman-Keul test. […]

The conditions of data set [1]: in humans; cited from earlier work.
Data set [2] relates to diabetic BB/Wor rats. Briefly: Morphometric and teased fibre assessment of sural nerve in diabetic BB/Wor rats. The settings on record: once daily dose 75 nmol/kg, 8 weeks, compared to diabetic rats (FIG. 5). Format: in vivo, rat. How it is done:
as §1, §2, §3
Teased fibre examinations. A mean of 168±4 myelinated fibres were teased from each sural nerve and scored for specific changes. […] Changes were expressed as percentages of total fibres.
as §4

For data set [3] the following is noted: dose injected into a rat; expected; cited from earlier work.
Data set [4] deals with diabetic BB/Wor rats. Description: Nerve conduction velocity in motor and sensory (sciatic-tibial) nerves of diabetic BB/Wor rats. Type of data set: in vivo, rat. How it is done: Further technical details can be found in Sima et al., Diabetologia (2001) 44: 889-897.
as §1, §2
Synthetic rat C-peptide II with a purity of more than 98% by HPLC was used (Genosys, Cambridge, UK) dissolved in saline (12 mg/ml). Control rats were given a dose of saline instead of C-peptide.
The nerve conduction velocity in motor and sensory nerves and Na^+K^+ATPase levels in the rats were measured. Baseline nerve conduction velocity was measured within 24 hours of onset of diabetes. […]
as §4

For the substance “C-peptide: Synthetic rat C-peptide II, purity more than 98% by HPLC (Genosys), dissolved in saline; used in Example 1 (EVEDPQVGQVELGAGPGAGSEQTLALEVARQ; Ins Rodent C-peptide)”, in the data set with Na+K+ATPase, the “Na+K+ATPase activity” value was “clearly and sufficiently improved”. Further, the half-life entry in data set [1] is “approximately 30 minutes”. Moreover, the “morphology of cells (morphometric data)” value in the data set with diabetic BB/Wor rats [2] is reported as “improved morphology”. The “time to disappear entirely from circulation” value in data set [3] is 2 to 3 h. Also, the “effectiveness of once daily dose compared with other dosing regimens” value with diabetic BB/Wor rats [4] (nerve conduction velocity and Na+K+ATPase activity, 75 nmol/kg once daily vs 3 x 25 nmol/kg daily or 75 nmol/kg/24 h continuous infusion by osmopump) is reported as “as effective as three daily dose or a continuous infusion”. Also, the nerve conduction velocity entry in the data set with diabetic BB/Wor rats [4] (once daily dose 75 nmol/kg, 8 weeks, diabetic BB/Wor rats, motor and sensory nerves (FIGS. 2, 3)) was “clearly and sufficiently improved”.
